Source: PubChem BioAssay AID1963448 (Molecular Pharmacology Branch, DTP, NCI, 2024)
pIC50: −log10 of the molar value.

System: 616215-338-R-J1-PDC complex spheroid growth, % test/control
Test: Anticancer human tumor 616215-338-R-J1-PDC patient-derived colon adenocarcinoma cell line growth inhibition [Asc]
Settings: for pIC50: curve of first compound; for viability, T/C: stronger effect = lower value
Method in brief: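 Spheroid model: tumor line + HUVEC + hMSC. Single agents and combinations; top conc. at/near clinical Cmax (10 microM if undetermined), half-log dilutions. DMSO stocks at 800-fold test concentration.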

[1] = second compound 0.03 µM, first compound 0.0316 µM
[2] = second compound 0.03 µM, first compound 0.1 µM
[3] = second compound 0.03 µM, first compound 0.316 µM
[4] = second compound 0.03 µM, first compound 1 µM
[5] = second compound 0.03 µM, first compound 3.16 µM
[6] = second compound 0.03 µM, first compound 10 µM
[7] = second compound 0.0949 µM, first compound 0.0316 µM
[8] = second compound 0.0949 µM, first compound 0.1 µM
[9] = second compound 0.0949 µM, first compound 0.316 µM
[10] = second compound 0.0949 µM, first compound 1 µM
[11] = second compound 0.0949 µM, first compound 3.16 µM
[12] = second compound 0.0949 µM, first compound 10 µM
[13] = second compound 0.3 µM, first compound 0.0316 µM
[14] = second compound 0.3 µM, first compound 0.1 µM
[15] = second compound 0.3 µM, first compound 0.316 µM
[16] = second compound 0.3 µM, first compound 1 µM
[17] = second compound 0.3 µM, first compound 3.16 µM
[18] = second compound 0.3 µM, first compound 10 µM
[19] = second compound 0.949 µM, first compound 0.0316 µM
[20] = second compound 0.949 µM, first compound 0.1 µM
[21] = second compound 0.949 µM, first compound 0.316 µM
[22] = second compound 0.949 µM, first compound 1 µM
[23] = second compound 0.949 µM, first compound 3.16 µM
[24] = second compound 0.949 µM, first compound 10 µM
[25] = second compound 3 µM, first compound 0.0316 µM
[26] = second compound 3 µM, first compound 0.1 µM
[27] = second compound 3 µM, first compound 0.316 µM
[28] = second compound 3 µM, first compound 1 µM
[29] = second compound 3 µM, first compound 3.16 µM
[30] = second compound 3 µM, first compound 10 µM
[31] = second compound 0.03 µM, first compound 0.00316 µM
[32] = second compound 0.03 µM, first compound 0.01 µM
[33] = second compound 0.0949 µM, first compound 0.00316 µM
[34] = second compound 0.0949 µM, first compound 0.01 µM
[35] = second compound 0.3 µM, first compound 0.00316 µM
[36] = second compound 0.3 µM, first compound 0.01 µM
[37] = second compound 0.949 µM, first compound 0.00316 µM
[38] = second compound 0.949 µM, first compound 0.01 µM
[39] = second compound 3 µM, first compound 0.00316 µM
[40] = second compound 3 µM, first compound 0.01 µM
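Also: spheroids exposed to agents for seven days before readout.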
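For viability, T/C in this document: 100% = DMSO vehicle control viability.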

SMILES	pIC50 (second compound 0.03 µM)	pIC50 (second compound 0.0949 µM)	pIC50 (second compound 0.3 µM)	pIC50 (second compound 0.949 µM)	pIC50 (second compound 3 µM)	viability, T/C [1] [%]	viability, T/C [2] [%]	viability, T/C [3] [%]	viability, T/C [4] [%]	viability, T/C [7] [%]	viability, T/C [8] [%]	viability, T/C [9] [%]	viability, T/C [10] [%]	viability, T/C [13] [%]	viability, T/C [14] [%]	viability, T/C [15] [%]	viability, T/C [16] [%]	viability, T/C [19] [%]	viability, T/C [20] [%]	viability, T/C [21] [%]	other results
C#Cc1c(F)ccc2cc(O)cc(-c3ncc4c(N5CC6CCC(C5)N6)nc(OCC56CCCN5CC(F)C6)nc4c3F)c12 (stereo not given) + CCN1C(C(=O)NC23CCC(C(=O)O)(CC2)CC3)C(c2cccc(Cl)c2F)C2(C(=O)Nc3cc(Cl)ccc32)C12CCCCC2	< 5.00	< 5.00	5.77	5.79	> 7.50	91.1	98.6	93.5	94.3	84.9	85.3	91.4	82.5	56.4	57.1	61.6	54	63.6	66	60.5	viability, T/C [5]: 84.4%; viability, T/C [6]: 67.5%; viability, T/C [11]: 80.3%; viability, T/C [12]: 68.1%; viability, T/C [17]: 44.7%; viability, T/C [18]: 38.4%; viability, T/C [22]: 51%; viability, T/C [23]: 46.5%; viability, T/C [24]: 30%; viability, T/C [25]: 36.6%; viability, T/C [26]: 42.4%; viability, T/C [27]: 36.1%; viability, T/C [28]: 32.4%; viability, T/C [29]: 20.1%; viability, T/C [30]: 17.4%
C=C(F)C(=O)N1CCN(c2nc(OCC3CCCN3C)nc3c2CCN(c2cccc4cccc(Cl)c24)C3)CC1CC#N (stereo not given) + CCN1C(C(=O)NC23CCC(C(=O)O)(CC2)CC3)C(c2cccc(Cl)c2F)C2(C(=O)Nc3cc(Cl)ccc32)C12CCCCC2	5.25	5.31	5.43	5.42	> 7.50	106	103	109	106	106	96.7	99.3	93.4	69.9	67.9	66	65.7	62.2	65.5	67.6	viability, T/C [5]: 101%; viability, T/C [6]: 0.87%; viability, T/C [11]: 82%; viability, T/C [12]: 0.4%; viability, T/C [17]: 58.2%; viability, T/C [18]: 0.52%; viability, T/C [22]: 63.8%; viability, T/C [23]: 59.9%; viability, T/C [24]: 0.26%; viability, T/C [25]: 48.9%; viability, T/C [26]: 48.8%; viability, T/C [27]: 46.2%; viability, T/C [28]: 45.6%; viability, T/C [29]: 46.2%; viability, T/C [30]: 0.36%
C=CC(=O)N1CCN(c2nc(=O)n(-c3c(C)ccnc3C(C)C)c3nc(-c4c(O)cccc4F)c(F)cc23)C(C)C1 (stereo not given) + CCN1C(C(=O)NC23CCC(C(=O)O)(CC2)CC3)C(c2cccc(Cl)c2F)C2(C(=O)Nc3cc(Cl)ccc32)C12CCCCC2	< 5.00	< 5.00	< 5.00	< 5.00	7.07	100	96.3	102	102	89.3	93.7	89.1	88.8	68.5	64.5	66.8	69.2	61.7	65	65.5	viability, T/C [5]: 98.2%; viability, T/C [6]: 101%; viability, T/C [11]: 92.9%; viability, T/C [12]: 85.5%; viability, T/C [17]: 67.3%; viability, T/C [18]: 68.7%; viability, T/C [22]: 58.1%; viability, T/C [23]: 60%; viability, T/C [24]: 57.2%; viability, T/C [25]: 48.2%; viability, T/C [26]: 49.8%; viability, T/C [27]: 52.5%; viability, T/C [28]: 50.3%; viability, T/C [29]: 48.9%; viability, T/C [30]: 45.6%
CNC(C)C(=O)NC1CN(S(=O)(=O)c2cccc(S(=O)(=O)N3CCC4CCC(C(=O)NC(c5ccccc5)c5ccccc5)N4C(=O)C(NC(=O)C(C)NC)C3)c2)CCC2CCC(C(=O)NC(c3ccccc3)c3ccccc3)N2C1=O (stereo not given) + CCN1C(C(=O)NC23CCC(C(=O)O)(CC2)CC3)C(c2cccc(Cl)c2F)C2(C(=O)Nc3cc(Cl)ccc32)C12CCCCC2	< 6.00	< 6.00	< 6.00	< 6.00	> 8.50	87.4	97.2	91	87	95.7	86.6	76	81.3	62.3	58.9	66.5	61.2	67.4	63.5	72.8	viability, T/C [31]: 95.2%; viability, T/C [32]: 96.1%; viability, T/C [33]: 90.9%; viability, T/C [34]: 91.4%; viability, T/C [35]: 74.1%; viability, T/C [36]: 58.8%; viability, T/C [37]: 71.5%; viability, T/C [38]: 75.5%; viability, T/C [22]: 78.5%; viability, T/C [39]: 41.1%; viability, T/C [40]: 49.4%; viability, T/C [25]: 51.6%; viability, T/C [26]: 48.7%; viability, T/C [27]: 47.2%; viability, T/C [28]: 52.8%
COc1c(OCCCN2CCOCC2)ccc2c3n(c(=NC(=O)c4cnc(N)nc4)nc12)CCN3 + CCN1C(C(=O)NC23CCC(C(=O)O)(CC2)CC3)C(c2cccc(Cl)c2F)C2(C(=O)Nc3cc(Cl)ccc32)C12CCCCC2	6.82	7.13	7.66	8.02	> 8.50	99.7	63.6	26	13.1	74.2	41	15.2	6.02	46	23.4	9.03	3.12	38.4	14	5.66	viability, T/C [31]: 95.7%; viability, T/C [32]: 99.4%; viability, T/C [33]: 89.3%; viability, T/C [34]: 81.2%; viability, T/C [35]: 59.7%; viability, T/C [36]: 59.2%; viability, T/C [37]: 55.1%; viability, T/C [38]: 47%; viability, T/C [22]: 1.65%; viability, T/C [39]: 45.7%; viability, T/C [40]: 40.4%; viability, T/C [25]: 27.4%; viability, T/C [26]: 7.37%; viability, T/C [27]: 3.24%; viability, T/C [28]: 0.71%
